# According to patent US20140329776A1, “Mitochondria-Targeted Antioxidants for Treatment of Age-Related Brain Disorders” (MITOTECH S.A., priority 2011, published 2014):
# Assays:
# [1] = test system: Wistar rats; test: muscle strength measurement 4 hours after ethanol narcosis; format: in vivo, rat; conditions: SkQ1 250 nM after ethanol narcosis; p<0.05
# Experimental: FIG. 6 is a graphic representation showing muscle strength measurement 4 hours after ethanol narcosis in % to intact control. *−p<0.05 to negative control, #−p<0.05 to intact control;
# (§1) In these experiments, 6 groups of experimental animals (Wistar rats) were used. (1) The Intact Control group (n=12), had no ethanol narcosis, and were orally administered a normal isotonic 0.9% NaCl solution; (2) the Negative Control group (n=12) was orally administered a normal physiological solution after ethanol narcosis; (3) The SkQ1 50 nM control group (n=12) was orally administered SkQ1 in a concentration 50 nM after ethanol narcosis; (4) The SkQ1 250 nM control group (n=12) was orally administered SkQ1 in a concentration of 250 nM after ethanol narcosis; (5) The SkQ1 1250 nM control group (n=12) was orally administered SkQ1 in a concentration of 1250 nM after ethanol narcosis; (6) the SkQ1 1250 nM intr control group (n=13) was intraperitoneally administered SkQ1 in a concentration of 1250 nM after ethanol narcosis.
# (§2) In the Negative Control group ethanol intoxication caused a decrease of locomotor activity compared to Intact Control group: decreased track length (p<0.05), movement time (p<0.05), mean speed (p<0.05) and increased immobilization time (p<0.05) (FIG. 4). […]
# [2] = test system: hippocampal slice neurons; test: long-term potentiation (LTP) of hippocampal slices treated with Aβ after in vivo treatment; parameters: species or system rat
# Experimental: FIG. 3B is a graphic representation showing the LTP caused by in vitro addition of Aβ, where the decay of LTP of hippocampal slice neurons characterized by a decrease of pop-spike amplitude (%) in a hippocampal slice treated with Aβ.
# SkQR1 Aβ was added 15 min before the LTP induction with high-frequency electric stimulation (arrow). The decay of LTP (i.e. decrease of pop-spike amplitude) in a hippocampal slice treated with Aβ can be prevented by SkQR1 treatment.
# FIG. 16 is a bar graph comparing the neuroprotective effects of preferred SkQ mitochondria-targeted antioxidants of the invention when administered in vivo in a model of Alzheimer disease.
# As a model of cell memory, an electric response of a hippocampal slice (long-term potentiation, LTP) was used (Malenka, et al., Science 285:1870-1874 (1999)). A direct experiment was performed showing the prevention of Aβ toxicity in hippocampus by in vivo treatment of rats with 1 μmol SkQR1 per kg of body weight. The compound was injected intraperitoneally into the animal 24 hours before hippocampal slices were obtained to measure LTP. Some slices were pretreated with Aβ for 15 minutes. As is seen in FIG. 3B, Aβ impaired LTP relative to untreated control.
# FIG. 16 provides a comparison of the neuroprotective effects of SkQ1, SkQR1 and C12TPP based on the LTP signal in neurons of hippocampal slices. Ab stands for beta-amyloid treatment. […] All SkQs and C12TPP were administered in vivo to rats prior the extraction of hippocampus.
# [3] = test system: Wistar rats; conditions: open field test; cited from earlier work
# [4] = test system: chronically alcoholised rats; test: consumption of 15% ethanol solution after deprivation; body weight; format: in vivo, rat
# Experimental: FIG. 12 is a graphic representation showing the consumption of 15% ethanol solution after deprivation in ml (*−p<0.01 on 1st day of alcoholisation SKQ-1 to negative control; #—p<0,05 for average ethanol consumption for 1-36 days SKQ-1 to negative control).
# Male albino rats had free access to a 15% ethanol solution, as well as to food and water. After 6 months of alcoholisation, animals with average consumption more than 11 ml of 15% ethanol solution were divided into two even groups and subjected to the following treatment. The Negative Control group (n=16) (chronically alcoholised rats) were orally administered 1 ml per kg of isotonic 0.9% NaCl solution every two days for 20 days during alcohol deprivation. The SkQ1 group (n=17) (chronically alcoholised rats) were orally administered 1 ml per kg of SkQ1 250 nM solution every two days for 20 days during alcohol deprivation. The Intact Control group (n=10) (animals had no previous contact with ethanol) were orally administered 1 ml per kg of normal physiological solution every two days for 20 days.
# After behavioral testing, ethanol consumption of 15% solution was measured for 45 days. The level of ethanol consumption during first day in the SkQ1 group was lower (p<0.01) than in the Negative Control group. The decreased ethanol consumption during first day indicates lower level of ethanol craving after SkQ1 administration. […]
# [5] = test system: Wistar rats; test: open field test 4 hours after ethanol narcosis; format: in vivo, rat; conditions: SkQ1 250 nM orally after ethanol narcosis; vs negative control, p<0.05
# Experimental: FIG. 5 is a schematic representation of the behavior parameters in the open field test 4 hours after ethanol narcosis of all groups in % to intact control. (*−p<0.05 for SKQ-1 250 nM compared to negative control);
# as §1, §2
compound,measurement,setting,value
"CC1=C(C)C(=O)C(CCCCCCCCCC[P+](c2ccccc2)(c2ccccc2)c2ccccc2)=CC1=O [SkQ1, plastoquinonyl decyltriphenyl-phosphonium]",muscle strength,[1],increasing
same,"neuroprotective activity based on LTP signal, model of Alzheimer disease","[2]; administered in vivo to rats prior to extraction of hippocampus, beta-amyloid treatment, FIG. 16",neuroprotective activity
same,impairment (decay) of LTP caused by Aβ,"[2]; in vivo treatment (SkQR1 1 μmol/kg i.p. 24 hours before slices), Aβ added to slices for 15 min",prevents decay
same,difference in number of squares crossed between 14-month-old and 3-month-old rats,[3],abolished
same,"average ethanol consumption during the next month, lower than Negative Control",[4]; p<0.05,~2 ×
same,level of ethanol consumption during first day,"[4]; vs Negative Control, p<0.01",lower
same,immobilization time,[5],decreasing
same,track length,[5],increasing
